Measurements taken from patent US20040241194A1, “Food supplement for animals” (Phytosynthese, priority 2001, published 2004).

Assays:
[1] = Influence on growth of chickens, open-label study versus monensin; assay type: in vivo; conditions: for Mean daily weight gain: composition at 1.5 kg per tonne
Description: The parameters considered are the performance index and the mean daily weight gain. The composition of the invention is administered at the rate of 1.5 kg per tonne.

[2] = Influence on growth, study on white free-range chickens; assay type: in vivo
Description: This test is conducted under the same conditions by administering 2 kg of the composition of the invention per tonne to four batches of chickens.

## CC[C@@]1([C@@H]2O[C@@H]([C@H]3O[C@@](O)(CO)[C@H](C)C[C@@H]3C)C[C@@H]2C)CC[C@H]([C@]2(C)CC[C@]3(C[C@H](O)[C@@H](C)[C@@H]([C@@H](C)[C@@H](OC)[C@H](C)C(=O)O)O3)O2)O1 [Control, monensin]
[1]; Table VI batch
  Mean weight: 2.083 kg
  Performance index: 87
  Mean daily weight gain: 25.32 g
[1]; Table VII batch
  Mean weight: 2.169 kg
  Performance index: 95
  Mean daily weight gain: 26.46 g
[2]; General Mean
  Feed conversion index (quantity of feed for obtaining 1 kg of chicken): 2.979
  Mean weight: 2.116 kg
[2]; General Mean, composition at 2 kg per tonne
  Mean daily weight gain: 25.46 g
[2]; Mean of the 1st third
  Feed conversion index (quantity of feed for obtaining 1 kg of chicken): 2.810
  Mean daily weight gain: 26.30 g
  Mean weight: 2.265 kg
[2]; Mean of the 2nd third
  Feed conversion index (quantity of feed for obtaining 1 kg of chicken): 2.960
  Mean daily weight gain: 25.48 g
  Mean weight: 2.131 kg
[2]; Mean of the 3rd third
  Feed conversion index (quantity of feed for obtaining 1 kg of chicken): 3.167
  Mean daily weight gain: 24.64 g
  Mean weight: 2.054 kg
